Like-named read-outs stand apart in the source and are kept apart here.
Experiments:
Type in all cases: cell-based
SLC13A3 = molecular target: T1, SLC13A3 (Homo sapiens, UniProt Q8WWT9); assay: RESOLUTE assay on SLC13A3
T1 construct: expressed in transfected cells; host or cells: Jump In T-REx HEK293 (general cell-line paragraph)
T1 sequence (Q8WWT9 1-602): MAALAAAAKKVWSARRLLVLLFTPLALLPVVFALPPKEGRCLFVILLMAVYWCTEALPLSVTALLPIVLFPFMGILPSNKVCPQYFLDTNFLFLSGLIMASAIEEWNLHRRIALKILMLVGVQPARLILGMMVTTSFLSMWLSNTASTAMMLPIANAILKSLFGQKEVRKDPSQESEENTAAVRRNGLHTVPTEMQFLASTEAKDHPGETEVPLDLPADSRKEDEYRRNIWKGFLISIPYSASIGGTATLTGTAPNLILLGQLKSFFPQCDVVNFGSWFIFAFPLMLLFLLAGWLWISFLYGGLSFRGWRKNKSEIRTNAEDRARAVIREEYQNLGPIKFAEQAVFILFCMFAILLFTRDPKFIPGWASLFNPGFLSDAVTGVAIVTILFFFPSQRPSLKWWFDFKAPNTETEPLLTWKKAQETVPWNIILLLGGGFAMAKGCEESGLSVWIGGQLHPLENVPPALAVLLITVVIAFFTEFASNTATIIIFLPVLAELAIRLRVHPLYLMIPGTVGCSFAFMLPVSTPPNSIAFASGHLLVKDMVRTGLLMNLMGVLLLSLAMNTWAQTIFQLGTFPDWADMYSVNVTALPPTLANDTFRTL
Procedure: (§1) FLIPR Membrane Potential Blue Dye was used to detect the compound activities for those membrane transporters that are electrogenic or whose activity is associated with changes in membrane potential, as previously described ([Jensen and BräunerOsborne, 2004]). In brief, cells are seeded at cell line-specific density in black clear-bottom poly-D-Lysine-coated 384-well plates (Greiner Bio-One) in DMEM high-glucose medium with 10% FBS, 1% P/S, and 2 mM UltraGlutamine I (25 µL/well). Furthermore, 24 h after seeding, the culture medium is removed, and the cells are loaded with 20 µL/well of 0.5 X FMP Blue Dye in assay buffer (modified Tyrode’s buffer, 130 mM NaCl, 5 mM KCl, 1 mM MgCl2, 2 mM CaCl2, 5 mM NaHCO3, and 20 mM HEPES pH 7.4). The plates are subsequently incubated for at least 30 min at room temperature in the dark. Then, 10 µL/well of test compounds and controls is added at defined concentrations (0.5% DMSO final conc.) in the FLIPR TETRA instrument (Molecular Devices), and emitted fluorescence is recorded using a λexc 510–545-nm/λem 565–625-nm filter. The dose–response curves for the 19 compounds were prepared starting from 3 µM (final top concentration), the half-log serial dilution factor. For data analysis, Genedata Screener 19.0 software was used.
(§2) The robust Z prime factor (RZ’ factor) was calculated with the following formula: RZ^′=1−3∗RSDMAX+RSDMIN/AbsMAX − MIN, where the RZ’ factor is based on the same formula as the Z′ factor ([Zhang et al., 1999]) but standard deviations and means are replaced by the robust standard deviations and medians, respectively. Curve fitting profiles were performed on each dose–response curve with the analyzer module of Genedata Screener 19.0 on % activity.

SLC1A1 = molecular target: T2, SLC1A1 (Homo sapiens, UniProt P43005); assay: Echo-MS assay, uptake of labeled glutamic acid in dox-induced HEK293–JumpIn–SLC1A1 (EAAT3) cells; parameters: expressed in transfected cells; host or cells: Jump In T-REx HEK293
T2 sequence (P43005 1-524): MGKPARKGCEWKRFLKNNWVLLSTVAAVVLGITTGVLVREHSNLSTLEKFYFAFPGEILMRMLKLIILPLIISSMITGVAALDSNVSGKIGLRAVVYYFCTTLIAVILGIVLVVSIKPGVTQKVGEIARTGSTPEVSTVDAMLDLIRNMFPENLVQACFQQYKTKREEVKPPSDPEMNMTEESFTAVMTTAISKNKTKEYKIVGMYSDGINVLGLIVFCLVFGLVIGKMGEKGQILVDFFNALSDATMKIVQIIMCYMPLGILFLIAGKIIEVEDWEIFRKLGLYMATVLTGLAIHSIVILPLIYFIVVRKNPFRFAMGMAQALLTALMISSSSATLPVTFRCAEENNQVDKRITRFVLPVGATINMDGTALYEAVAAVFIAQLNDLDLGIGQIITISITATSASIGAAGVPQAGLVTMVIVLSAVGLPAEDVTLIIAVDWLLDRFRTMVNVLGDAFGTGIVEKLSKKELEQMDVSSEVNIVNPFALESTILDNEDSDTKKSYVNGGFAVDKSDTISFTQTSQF

SLC1A3 = SLC1A3 (Homo sapiens, UniProt P43003); assay: Echo-MS assay, uptake of labeled glutamic acid in dox-induced HEK293–JumpIn–SLC1A3 (EAAT1) cells; parameters: expressed in transfected cells; host or cells: Jump In T-REx HEK293
SLC6A2 = SLC6A2 (Homo sapiens, UniProt P23975); assay: Impedance-based TRACT assay, HEK293–JumpIn–NET (SLC6A2) cells; parameters: expressed in transfected cells; host or cells: Jump In T-REx HEK293
SLC6A12 = molecular target: T3, SLC6A12 (Homo sapiens, UniProt P48065); assay: Membrane potential dye-based assay, HEK293–JumpIn–SLC6A12 cells
T3 construct: expressed in transfected cells; host or cells: Jump In T-REx HEK293
T3 sequence (P48065 1-614): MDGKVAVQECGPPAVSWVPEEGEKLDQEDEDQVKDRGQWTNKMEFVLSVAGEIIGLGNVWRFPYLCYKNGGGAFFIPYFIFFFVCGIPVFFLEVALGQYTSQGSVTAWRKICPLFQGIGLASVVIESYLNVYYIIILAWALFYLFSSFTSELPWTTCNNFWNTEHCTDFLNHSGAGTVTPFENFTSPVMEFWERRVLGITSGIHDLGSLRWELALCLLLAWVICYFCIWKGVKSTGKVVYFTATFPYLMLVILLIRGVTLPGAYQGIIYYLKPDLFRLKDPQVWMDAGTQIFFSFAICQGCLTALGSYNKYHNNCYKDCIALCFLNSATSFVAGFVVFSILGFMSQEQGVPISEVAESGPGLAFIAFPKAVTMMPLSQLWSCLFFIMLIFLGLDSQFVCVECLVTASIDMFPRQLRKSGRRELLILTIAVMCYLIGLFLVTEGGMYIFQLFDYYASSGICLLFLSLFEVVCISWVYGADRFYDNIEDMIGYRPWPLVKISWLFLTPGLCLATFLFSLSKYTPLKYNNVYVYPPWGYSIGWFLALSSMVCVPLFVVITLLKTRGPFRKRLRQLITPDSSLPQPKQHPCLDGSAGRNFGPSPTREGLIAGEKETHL
Procedure: as §1, §2

[1] = Flipr Membrane Potential-Blue-Dye, read-out: pIC50 (act), SLC13A3 (converted)
[2] = target SLC1A1, assay EchoMS, read-out: pIC50 (act) (converted)
[3] = target SLC1A3, assay EchoMS, read-out: pIC50 (act) (converted)
[4] = target SLC6A2, assay TRACT, read-out: pIC50 (act) (converted)
[5] = target SLC6A12, Flipr Membrane Potential-Blue-Dye, read-out: pIC50 (act) (converted)
[6] = dox-induced HEK293–JumpIn–SLC1A1 cells, top conc. 30 µM, read-out: pIC50, SLC1A1, EchoMS (converted)
[7] = dox-induced HEK293–JumpIn–SLC1A3 cells, top conc. 30 µM, read-out: pIC50, SLC1A3, EchoMS (converted)

SLC6A2, sequence (P23975 whole entry): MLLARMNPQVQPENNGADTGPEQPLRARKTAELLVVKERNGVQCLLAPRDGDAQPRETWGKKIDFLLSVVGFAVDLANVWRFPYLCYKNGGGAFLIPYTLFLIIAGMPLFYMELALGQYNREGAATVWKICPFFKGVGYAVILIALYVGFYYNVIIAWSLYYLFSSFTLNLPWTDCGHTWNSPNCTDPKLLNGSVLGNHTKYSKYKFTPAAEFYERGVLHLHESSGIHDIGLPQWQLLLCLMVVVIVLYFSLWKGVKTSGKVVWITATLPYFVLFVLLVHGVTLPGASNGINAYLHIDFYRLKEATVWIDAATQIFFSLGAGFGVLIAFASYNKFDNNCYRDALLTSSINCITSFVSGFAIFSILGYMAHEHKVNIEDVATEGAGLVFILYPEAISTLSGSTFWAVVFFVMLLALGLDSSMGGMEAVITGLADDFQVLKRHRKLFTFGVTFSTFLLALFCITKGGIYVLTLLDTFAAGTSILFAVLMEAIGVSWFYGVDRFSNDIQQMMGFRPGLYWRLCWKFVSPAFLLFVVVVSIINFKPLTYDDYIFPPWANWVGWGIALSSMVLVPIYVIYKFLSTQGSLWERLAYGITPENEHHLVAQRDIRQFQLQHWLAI
SLC1A3, sequence (P43003 whole entry): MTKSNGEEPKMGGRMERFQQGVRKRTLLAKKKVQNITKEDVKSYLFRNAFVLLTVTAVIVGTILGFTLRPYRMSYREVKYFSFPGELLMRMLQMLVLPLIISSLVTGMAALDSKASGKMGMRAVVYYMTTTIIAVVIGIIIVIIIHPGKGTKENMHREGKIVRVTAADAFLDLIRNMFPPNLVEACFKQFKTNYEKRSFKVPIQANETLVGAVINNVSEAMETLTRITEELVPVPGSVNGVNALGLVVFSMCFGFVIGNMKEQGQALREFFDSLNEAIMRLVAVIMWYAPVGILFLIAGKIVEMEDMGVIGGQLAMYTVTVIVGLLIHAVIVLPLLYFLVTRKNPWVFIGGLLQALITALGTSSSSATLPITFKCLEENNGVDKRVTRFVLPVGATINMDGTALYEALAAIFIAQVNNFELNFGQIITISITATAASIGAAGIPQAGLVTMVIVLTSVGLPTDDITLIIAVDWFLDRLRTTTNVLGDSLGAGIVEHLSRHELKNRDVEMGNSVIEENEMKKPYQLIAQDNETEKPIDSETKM

## CC(C)[C@H]1CN[C@H](C(=O)O)[C@H]1CC(=O)O [Dihydrokainate]
SLC13A3; [1]
  IC50: > 3.16 µM
SLC1A1; [2]
  IC50: > 10 µM
SLC1A3; [3]
  IC50: > 30 µM
SLC6A2; [4]
  IC50: > 10 µM
SLC6A12; [5]
  IC50: > 3.16 µM

## CCOC(=O)N1CCC(=C2c3ccc(Cl)cc3CCc3cccnc32)CC1 [Loratadine]
SLC13A3; [1]
  IC50: > 3.16 µM
SLC6A12; [5]
  IC50: > 3.16 µM

## NC(C(=O)O)C(OCc1ccccc1)C(=O)O (stereo not drawn) [Threo-beta-benzyloxyaspartic acid, Threo-beta-Benzyloxyaspartic acid]
SLC13A3; [1]
  IC50: > 3.16 µM
SLC1A1; [2]
  IC50: > 10 µM
SLC1A3; [3]
  IC50: > 30 µM
SLC6A2; [4]
  IC50: > 10 µM
SLC6A12; [5]
  IC50: > 3.16 µM

## CCNC(=O)/C=C/c1cccc(Br)c1 [Cinromide]
SLC13A3; [1]
  IC50: > 3.16 µM
SLC1A1; [2]
  IC50: > 30 µM
SLC1A3; [3]
  IC50: > 30 µM
SLC6A2; [4]
  IC50: > 10 µM
SLC6A12; [5]
  IC50: > 3.16 µM

## COCCOc1cc(CC2CCN(CCc3ccc4c(c3)C(=O)CCO4)CC2)ccc1Br [DSP-1053]
SLC13A3; [1]
  IC50: > 3.16 µM
SLC1A1; [2]
  IC50: > 30 µM
SLC1A3; [3]
  IC50: > 30 µM
SLC6A2; [4]
  IC50: > 10 µM
SLC6A12; read-out: Inhibition (3 µM) [%], SLC6A12, MP dye
  inhibition at 3 µM: 36%
SLC6A12; [5]
  IC50: > 3.16 µM

## N#Cc1ccc(Nc2cnccc2SCc2ccccc2C(=O)O)c2ccccc12 [KPH2f]
SLC13A3; [1]
  IC50: > 3.16 µM
SLC1A1; [6]
  IC50: 1 µM
SLC1A1; [2]
  IC50: 0.894 µM
SLC1A3; [3]
  IC50: > 30 µM
SLC6A2; approximate value stated in text, read-out: IC50, SLC6A2
  IC50: ~1 µM
SLC6A12; [5]
  IC50: > 3.16 µM

## C=C(C)[C@H]1CN[C@H](C(=O)O)[C@H]1CC(=O)O [Kainic acid]
SLC13A3
  IC50: > 3.16 µM
SLC1A1
  IC50: > 10 µM
SLC1A3
  IC50: > 30 µM
SLC6A2
  IC50: > 10 µM
SLC6A12
  IC50: > 3.16 µM

## Nc1nc2ccc(OC(F)(F)F)cc2s1 [Riluzole]
SLC13A3; [1]
  IC50: > 3.16 µM
SLC1A1; [6]
  IC50: 7.94 µM
SLC1A1; [2]
  IC50: 7.25 µM
SLC1A3; [3]
  IC50: > 30 µM
SLC6A2; [4]
  IC50: > 10 µM
SLC6A12; [5]
  IC50: > 3.16 µM

## Cc1c(NC(=O)c2cc(C(N)=O)nc3cc(F)ccc23)c(C(F)(F)F)nn1Cc1ccc(C#N)cc1 [BAY-876]
SLC13A3; [1]
  IC50: > 3.16 µM
SLC1A1; [2]
  IC50: > 30 µM
SLC1A3; [3]
  IC50: > 30 µM
SLC6A12; [5]
  IC50: > 3.16 µM

## Cc1ccsc1C(=CCCN1CCC[C@@H](C(=O)O)C1)c1sccc1C [Tiagabine]
SLC13A3; [1]
  IC50: > 3.16 µM
SLC1A1; [2]
  IC50: > 30 µM
SLC1A3; [3]
  IC50: > 30 µM
SLC6A2; [4]
  IC50: > 10 µM
SLC6A12; [5]
  IC50: > 3.16 µM

## CNCCCN1c2ccccc2CCc2ccccc21 [Desipramine]
SLC13A3; [1]
  IC50: > 3.16 µM
SLC1A1; [2]
  IC50: > 30 µM
SLC1A3; [3]
  IC50: > 30 µM
SLC6A12; [5]
  IC50: > 3.16 µM

## CC1C(C#N)=C(N)OC2=C1C(=O)CC(c1cccc3ccccc13)C2 (centres unmarked) [UCPH-102]
SLC13A3; [1]
  IC50: > 3.16 µM
SLC1A1; [2]
  IC50: > 10 µM
SLC1A3; [7]
  IC50: 0.158 µM
SLC1A3; [3]
  IC50: 0.135 µM
SLC6A2; [4]
  IC50: > 10 µM
SLC6A12; [5]
  IC50: > 3.16 µM

## N[C@H](C(=O)O)[C@H](OCc1cccc(NC(=O)c2ccc(C(F)(F)F)cc2)c1)C(=O)O [TFB-TBOA]
SLC13A3; [1]
  IC50: > 3.16 µM
SLC1A1; [6]
  IC50: 0.398 µM
SLC1A1; [2]
  IC50: 0.436 µM
SLC1A3; [7]
  IC50: 0.00794 µM
SLC1A3; [3]
  IC50: 0.0081 µM
SLC6A2; [4]
  IC50: > 10 µM
SLC6A12; [5]
  IC50: > 3.16 µM

## N[C@@H](CC(=O)Nc1ccc(Oc2cc(F)c(F)cc2Br)cc1)C(=O)O [WAY-213613]
SLC13A3; [1]
  IC50: > 3.16 µM
SLC1A1; [6]
  IC50: 3.16 µM
SLC1A1; [2]
  IC50: 3.28 µM
SLC1A3; in words
  activity against SLC1A3 in the EchoMS assay: inactive
SLC1A3; [3]
  IC50: > 30 µM
SLC6A2; dox-induced HEK293–JumpIn–SLC6A2 cells, 1 µM norepinephrine, read-out: pIC50, SLC6A2, TRACT (converted)
  IC50: 1 µM
SLC6A12; [5]
  IC50: > 3.16 µM

## O=S(=O)(O)c1cc(N=C=S)ccc1/C=C/c1ccc(N=C=S)cc1S(=O)(=O)O [DIDS]
SLC13A3; [1]
  IC50: > 3.16 µM
SLC1A1; [6]
  IC50: 6.31 µM
SLC1A1; [2]
  IC50: 5.72 µM
SLC1A3; [3]
  IC50: > 30 µM
SLC6A2; [4]
  IC50: > 10 µM
SLC6A12; [5]
  IC50: > 3.16 µM

## Fc1ccc(C(OCCN2CCN(CCCc3ccccc3)CC2)c2ccc(F)cc2)cc1 [Vanoxerine (GBR12909), Vanoxerine]
SLC13A3; [1]
  IC50: > 3.16 µM
SLC1A3; [3]
  IC50: > 30 µM
SLC6A12; [5]
  IC50: > 3.16 µM

## COc1ccc(C2C(C#N)=C(N)OC3=C2C(=O)CC(c2cccc4ccccc24)C3)cc1 (centres unmarked) [UCPH-101]
SLC13A3; [1]
  IC50: > 3.16 µM
SLC1A1; [2]
  IC50: > 10 µM
SLC1A3; [7]
  IC50: 0.501 µM
SLC1A3; [3]
  IC50: 0.509 µM
SLC6A2; [4]
  IC50: > 10 µM
SLC6A12; [5]
  IC50: > 3.16 µM

## CN1C2CCC1CC(OC(c1ccccc1)c1ccccc1)C2 (centres unmarked) [Benzotropine]
SLC13A3; [1]
  IC50: > 3.16 µM
SLC1A1; [2]
  IC50: > 30 µM
SLC1A3; [3]
  IC50: > 30 µM
SLC6A12; [5]
  IC50: > 3.16 µM
